Experimental data as given in patent US20230365691A1, “USE OF ANTI-PD-1 ANTIBODY IN TREATMENT OF NASOPHARYNGEAL CARCINOMA” (SHANGHAI JUNSHI BIOSCIENCES CO., LTD., priority 2020, published 2023).
Where two headings read alike, the source gives them in different places.

What was measured:
[1] = test system: recurrent or metastatic nasopharyngeal carcinoma patient; details: human, in vivo
Description: Inclusion criteria: eligible subjects must (1) be 18 years old or older, (2) have recurrent or metastatic nasopharyngeal carcinoma, (3) be refractory to standard systemic therapy or have progressive disease after 6 months of radiotherapy and chemotherapy, (4) have an ECOG score of 0 or 1, (5) have the normal organ function within 10 days […] treatment, (6) have no history of autoimmune diseases or other malignant cancers, and (7) have not received any anti-PD-1/or anti-PD-L1 immunotherapy before.
Subjects must have an evaluable lesion according to RECIST v 1.1, have not received anti-tumour monoclonal antibody drug treatment within 4 weeks before treatment, have not received any anti-tumour drug treatment within 2 weeks before treatment, and have not received systemic steroid drug treatment within 7 days before treatment.
From Dec. 22, 2016 to Feb. 19, 2019, a total of 279 patients with recurrent or metastatic NPC were screened from 17 centres in Chinese mainland, and 190 patients were enrolled in this study. […] Of the two histological subtypes, 182 patients (95.8%) had non-keratinizing NPC and 8 patients (4.2%) had keratinizing NPC. There were 116 patients (61.1%) who had received at least two kinds of systemic therapy.
Test drug: anti-PD-1 antibody toripalimab (WO 2014206107). […]

[2] = test system: recurrent or metastatic nasopharyngeal carcinoma patient; assay: Single-arm phase II clinical trial of toripalimab: anti-tumour activity by RECIST v1.1 / irRECIST; format: in vivo, human
Description: Test drug: anti-PD-1 antibody toripalimab (WO 2014206107).
The subjects were evaluated every 8 weeks for the first year and every 12 weeks thereafter according to RECIST v1.1 and the Immune-Related Response Evaluation Criteria in Solid Tumour (irRECIST). The subjects were evaluated every 3 months after drug discontinuance.
This was a single-arm, phase II, open-label clinical trial. This study was conducted to evaluate the safety and anti-tumour activity of an anti-PD-1 antibody in treatment of a recurrent or metastatic nasopharyngeal carcinoma patient.

[3] = Immunogenicity: anti-drug antibodies (ADAs) in the phase II trial; format: in vivo, human
Description: Anti-drug antibodies (ADAs) were detected in 190 patients. Seven cases (3.7%) were positive for ADA, including four consecutive positive samples.

[4] = test system: recurrent or metastatic nasopharyngeal carcinoma patient; format: in vivo, human
Description: The PD-L1 expression status in tumour biopsies was determined by SP142 IHC staining, with tumour proportion score (TPS) > 1% being determined as positive.
Tumour biopsy tissues and matched peripheral blood samples from subjects were subjected to whole exome sequencing (WES) to identify tumour-specific mutations. […] In this study, the top 10% or 20% cut-off values of TMB (2.9 Muts/Mb and 2.0 Muts/Mb, respectively) were selected for evaluation of clinical response.
The correlation between genomic changes and clinical efficacy was analysed.
Plasma was collected from patients before administration, and the number of copies of EBV DNA was analysed by qRT-PCR once every 4 weeks.

[5] = Investigator, RECIST1.1, n = 190
[6] = Investigator, irRECIST, n = 190
[7] = at least two prior treatments (n = 116)
[8] = keratinizing versus non-keratinizing NPC

Which results are given for toripalimab?
patients subjected to dose interruption due to TRAEs [1]: 3.7%; CR ([2]; IRC, RECIST1.1, n = 190): 5 (2.6%); NE ([2]; IRC, RECIST1.1, n = 190): 28 (14.7%); PD ([2]; IRC, RECIST1.1, n = 190): 86 (45.3%); PR ([2]; IRC, RECIST1.1, n = 190): 34 (17.9%); CR ([2]; IRC, RECIST v1.1, 190 patients): 5 cases; PR ([2]; IRC, RECIST v1.1, 190 patients): 34 cases; CR ([2]; IRC, irRECIST, n = 190): 5 (2.6%); NE ([2]; IRC, irRECIST, n = 190): 28 (14.7%); PD ([2]; IRC, irRECIST, n = 190): 71 (37.4%); PR ([2]; IRC, irRECIST, n = 190): 34 (17.9%); ORR ([2]; IRC, keratinizing NPC (n = 8)): 62.5%; ORR ([2]; IRC, non-keratinizing NPC (n = 182)): 18.7%; CR [2, 5]: 5 (2.6%); DCR (%) [2, 5]: 88 (46.3%); NE [2, 5]: 24 (12.6%); ORR (%) [2, 5]: 40 (21.1%); PD [2, 5]: 78 (41.1%); PR [2, 5]: 35 (18.4%); CR [2, 6]: 5 (2.6%); DCR (%) [2, 6]: 103 (54.2%); NE [2, 6]: 28 (14.7%); ORR (%) [2, 6]: 44 (23.2%); PD [2, 6]: 59 (31.1%); PR [2, 6]: 39 (20.5%); median DOR ([2]; all subjects): 12.8 months; median overall survival (mOS) ([2]; all subjects): 17.4 months; median progression-free survival (mPFS) ([2]; all subjects): 1.9 months; median time to response ([2]; all subjects): 1.8 months; patients who had died ([2]; as of Feb. 19, 2020, 190 patients): 49.5%; mOS [2, 7]: 15.1 months; mPFS [2, 7]: 2.0 months; median DOR [2, 7]: 21.5 months; OS ([2]; keratinizing NPC): not reached; PFS ([2]; keratinizing NPC): 16.6 months; HR for OS [2, 8]: 0.51; HR for PFS [2, 8]: 0.46; subjects who had reductions in target lesions relative to baseline ([2]; n = 190): 38.4%; subjects with a reduction greater than or equal to 30% in target lesions from baseline ([2]; n = 190): 25.3%; OS ([2]; non-keratinizing NPC): 15.1 months; PFS ([2]; non-keratinizing NPC): 1.9 months; ORR ([2]; patients who had received at least two prior treatments (n = 116)): 21.6%; median OS ([2]; subjects experiencing objective response (n = 39) or stable disease (n = 38)): not reached; median OS ([2]; subjects with progressive disease (n = 113)): 8.4 months; cases positive for ADA ([3]; 190 patients): 3.7%; difference in incidence of AEs, SAEs and AEs of grade 3 or above, drug discontinuance or dose delay, and clinical efficacy ([3]; between ADA positive and negative patients): no significant difference; PFS ([4]; 10% of patients with the highest TMB value, similar to the 90% with the lowest TMB value): 1.9 months; ORR ([4]; 11 patients with genome amplification of CCND1 and/or FGF14, FGF3 or FGF4 chromosome 11q13 region): 0%; median time of at least 2-fold increase in plasma EBV DNA copies prior to imaging-confirmed progressive disease ([4]; 14 patients who experienced progressive disease): 3 months; ORR ([4]; 19 patients with ETV6 mutations): 5.3%; ORR ([4]; PD-L1+ patients): 27.1%; ORR ([4]; PD-L1- patients): 19.4%; mOS ([4]; PD-L1 > 25%): not reached; mPFS ([4]; PD-L1 > 25%): 7.2 months; HR for OS ([4]; PD-L1 > 25% versus ≤ 25%): 0.57; HR for PFS ([4]; PD-L1 > 25% versus ≤ 25%): 0.64; mPFS ([4]; PD-L1 ≤ 25%): 1.9 months; ORR ([4]; at least 2-fold decrease in plasma EBV DNA copies on day 28 (n = 60)): 48.3%; ORR ([4]; baseline EBV titre < 10000 IU/mL): 26.7%; ORR ([4]; baseline EBV titre ≥ 10000 IU/mL): 15.4%; OS ([4]; high TMB patients): 9.2 months; ORR ([4]; less than 2-fold decrease in plasma EBV DNA copies on day 28 (n = 88)): 5.7%; OS ([4]; low TMB patients): 17.4 months; ORR ([4]; patients with PD-L1 > 25%): 38.1%; ORR ([4]; patients with PD-L1 ≤ 25%): 19.3%; median decrease in the number of copies of EBV DNA in plasma from baseline to the nadir ([4]; patients with objective response (n = 34)): 31 fold; change in the number of copies of EBV DNA in plasma from baseline ([4]; patients with progressive disease (n = 80)): no change; decrease in the number of copies of EBV DNA in plasma from baseline to the nadir ([4]; patients with stable disease (n = 35)): 3 fold; ORR ([4]; top 10% of patients by TMB (cut-off 2.9 Muts/Mb)): 17.6%; ORR ([4]; top 20% of patients by TMB (cut-off 2.0 Muts/Mb)): 14.3%
